Assay results published in PubChem BioAssay AID1963977 (Molecular Pharmacology Branch, DTP, NCI, 2024).
“And” between values parts separate entries of the source, which are not always exact repeats. Identical values can stand only once.

Test system: 624824-186-R-J3-PDC multicell spheroids, viability
Assay: Anticancer human tumor 624824-186-R-J3-PDC patient-derived colon adenocarcinoma cell line growth inhibition [PI3K]
Conditions: for IC50: curve of first compound; for viability, T/C: stronger effect = lower value
Procedure, shortened: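 Three cell types, namely tumor cells, endothelial cells and mesenchymal stem cells, formed each spheroid. Combinations with four PI3K inhibitors were screened at clinically achievable concentrations decreasing by half-log, and spheroid viability was recorded.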

[1] = second compound 0.0316 µM, first compound 0.0316 µM
[2] = second compound 0.0316 µM, first compound 0.1 µM
[3] = second compound 0.0316 µM, first compound 0.316 µM
[4] = second compound 0.0316 µM, first compound 1 µM
[5] = second compound 0.0316 µM, first compound 3.16 µM
[6] = second compound 0.0316 µM, first compound 10 µM
[7] = second compound 0.1 µM, first compound 0.0316 µM
[8] = second compound 0.1 µM, first compound 0.1 µM
[9] = second compound 0.1 µM, first compound 0.316 µM
[10] = second compound 0.1 µM, first compound 1 µM
[11] = second compound 0.1 µM, first compound 3.16 µM
[12] = second compound 0.1 µM, first compound 10 µM
[13] = second compound 0.316 µM, first compound 0.0316 µM
[14] = second compound 0.316 µM, first compound 0.1 µM
[15] = second compound 0.316 µM, first compound 0.316 µM
[16] = second compound 0.316 µM, first compound 1 µM
[17] = second compound 0.316 µM, first compound 3.16 µM
[18] = second compound 0.316 µM, first compound 10 µM
[19] = second compound 1 µM, first compound 0.0316 µM
[20] = second compound 1 µM, first compound 0.1 µM
[21] = second compound 1 µM, first compound 0.316 µM
[22] = second compound 1 µM, first compound 1 µM
[23] = second compound 1 µM, first compound 3.16 µM
[24] = second compound 1 µM, first compound 10 µM
[25] = second compound 3.16 µM, first compound 0.0316 µM
[26] = second compound 3.16 µM, first compound 0.1 µM
[27] = second compound 3.16 µM, first compound 0.316 µM
[28] = second compound 3.16 µM, first compound 1 µM
[29] = second compound 3.16 µM, first compound 3.16 µM
[30] = second compound 3.16 µM, first compound 10 µM
[31] = second compound 10 µM, first compound 0.0316 µM
[32] = second compound 10 µM, first compound 0.1 µM
[33] = second compound 10 µM, first compound 0.316 µM
[34] = second compound 10 µM, first compound 1 µM
[35] = second compound 10 µM, first compound 3.16 µM
[36] = second compound 10 µM, first compound 10 µM
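Further: spheroids exposed to agents for seven days before luminescence read.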
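Wherever viability, T/C is given: luminescent signal used as a stand-in for spheroid viability; percent viability relative to DMSO vehicle control wells taken as 100%.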

C#Cc1c(F)ccc2cc(O)cc(-c3ncc4c(N5CC6CCC(C5)N6)nc(OCC56CCCN5CC(F)C6)nc4c3F)c12 (stereo unspecified) + CC(Nc1ccc2c(c1)OCCn1cc(N3C(=O)OCC3C(F)F)nc1-2)C(N)=O
IC50 (second compound 0.00316 µM): > 10000 nM | IC50 (second compound 0.01 µM): > 10000 nM | IC50 (second compound 0.0316 µM): > 10000 nM | IC50 (second compound 0.1 µM): > 10000 nM | IC50 (second compound 0.316 µM): > 10000 nM | IC50 (second compound 1 µM): > 10000 nM | viability, T/C (second compound 0.00316 µM, first compound 0.0316 µM): 106% | viability, T/C (second compound 0.00316 µM, first compound 0.1 µM): 108% | viability, T/C (second compound 0.00316 µM, first compound 0.316 µM): 100% | viability, T/C (second compound 0.00316 µM, first compound 1 µM): 108% | viability, T/C (second compound 0.00316 µM, first compound 3.16 µM): 104% | viability, T/C (second compound 0.00316 µM, first compound 10 µM): 122% | viability, T/C (second compound 0.01 µM, first compound 0.0316 µM): 109% | viability, T/C (second compound 0.01 µM, first compound 0.1 µM): 89.9% | viability, T/C (second compound 0.01 µM, first compound 0.316 µM): 97.1% | viability, T/C (second compound 0.01 µM, first compound 1 µM): 108% | viability, T/C (second compound 0.01 µM, first compound 3.16 µM): 103% | viability, T/C (second compound 0.01 µM, first compound 10 µM): 101% | viability, T/C [1]: 109% | viability, T/C [2]: 105% | viability, T/C [3]: 107% | viability, T/C [4]: 103% | viability, T/C [5]: 107% | viability, T/C [6]: 106% | viability, T/C [7]: 105% | viability, T/C [8]: 101% | viability, T/C [9]: 108% | viability, T/C [10]: 109% | viability, T/C [11]: 111% | viability, T/C [12]: 103% | viability, T/C [13]: 95.9% | viability, T/C [14]: 99.7% | viability, T/C [15]: 103% | viability, T/C [16]: 98% | viability, T/C [17]: 104% | viability, T/C [18]: 108% | viability, T/C [19]: 93.9% | viability, T/C [20]: 83.2% | viability, T/C [21]: 94.3% | viability, T/C [22]: 88.3% | viability, T/C [23]: 88.8% | viability, T/C [24]: 99.2%

CC(C)NCC(C(=O)N1CCN(c2ncnc3c2C(C)CC3O)CC1)c1ccc(Cl)cc1 (stereo unspecified) + Cc1nc(NC(=O)N2CCCC2C(N)=O)sc1-c1ccnc(C(C)(C)C(F)(F)F)c1
IC50 (second compound 0.0316 µM): 5340 nM | IC50 (second compound 0.1 µM): 5110 nM | IC50 (second compound 0.316 µM): 4590 nM | IC50 (second compound 1 µM): 2850 nM | IC50 (second compound 3.16 µM): 2030 nM | IC50 (second compound 10 µM): 1420 nM | viability, T/C [1]: 108% | viability, T/C [2]: 108% | viability, T/C [3]: 99% | viability, T/C [4]: 78.2% | viability, T/C [5]: 59.8% | viability, T/C [6]: 39.7% | viability, T/C [7]: 107% | viability, T/C [8]: 92.8% | viability, T/C [9]: 93.2% | viability, T/C [10]: 77.1% | viability, T/C [11]: 53.2% | viability, T/C [12]: 43.2% | viability, T/C [13]: 104% | viability, T/C [14]: 104% | viability, T/C [15]: 91.1% | viability, T/C [16]: 75.8% | viability, T/C [17]: 53.3% | viability, T/C [18]: 41.9% | viability, T/C [19]: 95.5% | viability, T/C [20]: 105% | viability, T/C [21]: 86.8% | viability, T/C [22]: 72.6% | viability, T/C [23]: 46.5% | viability, T/C [24]: 39.5% | viability, T/C [25]: 86.8% | viability, T/C [26]: 77.4% | viability, T/C [27]: 79.8% | viability, T/C [28]: 59% | viability, T/C [29]: 44.2% | viability, T/C [30]: 32.1% | viability, T/C [31]: 68.1% | viability, T/C [32]: 64.9% | viability, T/C [33]: 70.8% | viability, T/C [34]: 52.5% | viability, T/C [35]: 41.2% | viability, T/C [36]: 32.8%

CC1(C)CCC(CN2CCN(c3ccc(C(=O)NS(=O)(=O)c4ccc(NCC5CCOCC5)c([N+](=O)[O-])c4)c(Oc4cnc5[nH]ccc5c4)c3)CC2)=C(c2ccc(Cl)cc2)C1
viability, T/C (compound 0.0316 µM): 101% [middle of 4 runs] | viability, T/C (compound 0.1 µM): 99.1% [middle of 4 runs] | viability, T/C (compound 0.316 µM): 103% (2×) and 102% and 107% | viability, T/C (compound 1 µM): 105% [middle of 4 runs] | viability, T/C (compound 3.16 µM): 110% [middle of 4 runs]

Cn1ncc(Cl)c1-c1cc(C(=O)NC(CN)Cc2cccc(F)c2)sc1Cl (stereo unspecified) + Cc1nc(NC(=O)N2CCCC2C(N)=O)sc1-c1ccnc(C(C)(C)C(F)(F)F)c1
IC50 (second compound 0.0316 µM): 3910 nM | IC50 (second compound 0.1 µM): 2840 nM | IC50 (second compound 0.316 µM): 2440 nM | IC50 (second compound 1 µM): 2850 nM | IC50 (second compound 3.16 µM): 1770 nM | IC50 (second compound 10 µM): 933 nM | viability, T/C [1]: 107% | viability, T/C [2]: 95.5% | viability, T/C [3]: 90.2% | viability, T/C [4]: 71.7% | viability, T/C [5]: 52.4% | viability, T/C [6]: 36.4% | viability, T/C [7]: 104% | viability, T/C [8]: 103% | viability, T/C [9]: 98.8% | viability, T/C [10]: 70.9% | viability, T/C [11]: 49.8% | viability, T/C [12]: 39% | viability, T/C [13]: 108% | viability, T/C [14]: 104% | viability, T/C [15]: 89.4% | viability, T/C [16]: 61% | viability, T/C [17]: 50% | viability, T/C [18]: 36.1% | viability, T/C [19]: 102% | viability, T/C [20]: 87% | viability, T/C [21]: 82.2% | viability, T/C [22]: 70.1% | viability, T/C [23]: 44.9% | viability, T/C [24]: 30.4% | viability, T/C [25]: 76.7% | viability, T/C [26]: 89% | viability, T/C [27]: 81.9% | viability, T/C [28]: 56.7% | viability, T/C [29]: 42.8% | viability, T/C [30]: 26.7% | viability, T/C [31]: 74.5% | viability, T/C [32]: 68% | viability, T/C [33]: 54.8% | viability, T/C [34]: 53.8% | viability, T/C [35]: 37.6% | viability, T/C [36]: 21.6%
